pIC50: −log10 of the molar value. Like-named read-outs stand apart in the source and are kept apart here. Ends that are not written are not given here.
Legend:
[1] = system: E. histolytica HM1:IMSS trophozoites; type: cell-based, Entamoeba histolytica; conditions: MTT, 24 h
Method: Axenic E. histolytica HM1:IMSS trophozoites were maintained in TYI-S-33 medium supplemented with 15% adult bovine serum (Microlab) and 3% Diamond vitamin stock solution 40× (Sigma-Aldrich) under anaerobic conditions at 37°C for 72 h. Virulence of trophozoites was maintained through successive passages into hamster liver, followed by recovery of parasites from the induced amoebic liver abscesses. Trophozoites grown for 72 h (log-phase) were harvested by ice-chilling for 5 min and centrifugation at 150 g for 5 min at 4°C.
Trophozoites were harvested from cultures after 72 h, as mentioned above, and were seeded in 96-well culture plates at 2 × 10^4 trophozoites in 200 μl of fresh TYI-S-33 medium. […] The plates were incubated for 24 h at 37°C and viability was determined using 3-[4,5-dimethylthiazol-2-yl]-2,5-diphenyltetrazolium bromide (MTT). […] Finally, the absorbance at 595 nm was measured within 15 min, using a plate reader Multiskan FC (Thermo Scientific). A MTT calibration curve was previously calculated using amoeba densities of between 1 × 10^3 and 1 × 10^5 parasites/well. […] The total number of parasites after treatments was also determined following the same methodology, but adding to the wells only 250 µM of the peptides separately and incubating for 24 h at 37°C. Amoebas were harvested by ice chilling for 5 min and counted on a hemocytometer using a Nikon TMS inverted microscope.

[2] = system: E. histolytica; conditions: 20 mg/kg orally daily for 7 days, murine model, cited from earlier work
Text: Intestinal parasite infections, including amoebiasis, remain the main causes of morbidity and mortality in developing countries. In Mexico, amoebiasis is included in the list of the 20 most frequent communicable diseases, as the numbers of new cases of intestinal and hepatic amoebiasis in 2016 were approximately 220000 and 560, respectively, according to the Secretary of Health (http://www.epidemiologia.salud.gob.mx/anuario/2016/morbilidad/nacional/distribucion_casos_nuevos_enfermedad_fuente_notificacion.pdf). Treatment with metronidazole and other nitro-imidazole derivatives remains the ... || Finally, our results regarding the high efficiency of the peptides at resolving murine intestinal amoebiasis opens the possibility of using them as potential new compounds for the treatment of the disease, either alone or in combination with metronidazole. This would reduce the concentration of the drug needed to resolve an amoebic infection and, in turn, reduce the adverse effects of the drug and the potential development of resistance in the parasite. The mechanism by which the peptides controlled intestinal infection by amoebas in mice remains unknown. The higher efficiency of Lfampin, whic ...

Substance	pIC50 ([1]; 37°C, estimated (Supplementary Figure S1))	trophozoites killed ([1]; doses higher than 100 μM) [%]	intestinal infection resolved [2]	intestinal infection resolved ([2]; listed as native Lf) [%]
DLIWKLLSKAQEKFGKNKSR [Lfampin]	3.66	80		
lactoferrin			up to 63%	63

Source: article PMC6328891, “Synthetic bovine lactoferrin peptide Lfampin kills Entamoeba histolytica trophozoites by necrosis and resolves amoebic intracecal infection in mice” (Bioscience Reports, 2019)
